Measurements as given in ChEMBL document CHEMBL5604063, “ASAP - DENV-2 NS2B-NS3 protease fluorescence dose response” (2024).
Where “and” joins values, the source holds several entries; their conditions need not be identical. Equal entries are not always repeated.

What was measured:
[1] = target: T1, Genome polyprotein (dengue virus type 2, UniProt P29990); type: functional, Thailand/16681/1984
[2] = target: T1, Genome polyprotein; type: functional, Thailand/16681/1984; remark: listed apart in the source

T1 sequence (P29990 1346-1475 limits assumed): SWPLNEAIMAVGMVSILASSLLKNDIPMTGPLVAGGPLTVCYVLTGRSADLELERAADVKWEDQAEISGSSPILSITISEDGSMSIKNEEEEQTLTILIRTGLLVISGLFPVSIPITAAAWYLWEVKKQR
T1 sequence (P29990 1476-2093 limits assumed): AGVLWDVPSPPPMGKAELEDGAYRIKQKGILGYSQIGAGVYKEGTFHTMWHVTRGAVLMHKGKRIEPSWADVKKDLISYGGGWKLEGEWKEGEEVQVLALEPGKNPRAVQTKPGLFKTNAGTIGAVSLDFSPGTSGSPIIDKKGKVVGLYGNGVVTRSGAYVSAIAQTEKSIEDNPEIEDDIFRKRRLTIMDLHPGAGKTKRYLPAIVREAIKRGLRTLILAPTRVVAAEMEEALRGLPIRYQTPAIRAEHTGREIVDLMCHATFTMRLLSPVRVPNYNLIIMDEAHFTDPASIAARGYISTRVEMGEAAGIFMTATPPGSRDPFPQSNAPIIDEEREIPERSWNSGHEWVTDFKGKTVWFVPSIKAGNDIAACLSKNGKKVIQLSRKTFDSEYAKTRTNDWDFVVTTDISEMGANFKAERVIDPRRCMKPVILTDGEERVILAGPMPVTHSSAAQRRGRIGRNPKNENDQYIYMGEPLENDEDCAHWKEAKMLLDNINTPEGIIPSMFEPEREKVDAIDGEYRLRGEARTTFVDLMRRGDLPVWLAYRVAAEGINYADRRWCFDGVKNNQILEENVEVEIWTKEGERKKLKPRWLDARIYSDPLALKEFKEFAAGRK

| Compound | IC50 [1] | IC50 [2] |
| --- | --- | --- |
| N=C(N)NCCC[C@H](NC(=O)[C@H](Cc1ccc(CN)cc1)NC(=O)c1ccccc1)B(O)O | 305 nM and 257 nM and 222 nM and 304 nM and 397 nM and 347 nM and 311 nM and 370 nM and 386 nM and 288 nM and 401 nM (2×) and 387 nM and 378 nM and 379 nM and 356 nM and 445 nM and 309 nM and 358 nM (2×) and 321 nM and 398 nM and 512 nM and 367 nM and 298 nM and 273 nM and 243 nM and 437 nM and 458 nM and 503 nM and 302 nM and 267 nM and 516 nM and 409 nM and 384 nM and 328 nM and 540 nM and 421 nM | 720 nM and 583 nM and 818 nM and 732 nM and 585 nM and < 2.49 µM (9×) and 276 nM and 270 nM and 274 nM and 310 nM and 236 nM and 572 nM and 397 nM and 474 nM and 507 nM and 265 nM |
| O=C(Nc1cc(Cl)cc(C(=O)Nc2ccc3c(c2)CNC3)c1)OCc1ccccc1 | > 100 µM | > 99.5 µM |
| N#Cc1cccc(-c2nc3c(C(=O)Nc4ccncc4)cc(Cl)cc3[nH]2)c1 | > 100 µM | – |
| CC(=O)N1CCC([C@H](NC(=O)OCc2ccccc2)C(=O)Nc2cccc(CN)c2)CC1 | > 100 µM | > 99.5 µM |
| NCc1cccc([C@@H]2C[C@H]2c2cc(Cl)cc(NC(=O)OCc3ccccc3)c2)c1 | > 100 µM | 30.3 µM and 50.1 µM |
| FC(F)(F)Oc1cc(Cl)cc2c(CN3CCC(c4cscn4)CC3)c[nH]c12 | > 100 µM | > 99.5 µM |
| Cc1ncc(C(=O)Nc2cccc(CN)c2)cc1NC(=O)OCc1ccccc1 | > 100 µM | > 99.5 µM |
| NCc1cccc(NC(=O)c2cc(NC(=O)OCc3ccccc3)cc3c2OCCO3)c1 | > 100 µM | > 99.5 µM |
| NCc1cccc(NC(=O)[C@H](NC(=O)OCc2ccccc2)C2CCN(C(=O)C3CCOCC3)CC2)c1 | > 100 µM | > 99.5 µM |
| NCc1cccc(NC(=O)[C@@H](NC(=O)OCc2ccccc2)c2ccc(OCc3ccccc3)cc2)c1 | 31 µM and 29.9 µM and 41.3 µM and 32.5 µM and 27.7 µM and 33.1 µM and 29.8 µM and 19 µM and 28.8 µM | 14.2 µM |
| NCc1cccc(NC(=O)C[C@H](NC(=O)OCc2ccccc2)c2ccc(OCc3ccccc3)c(Br)c2)c1 | 8.8 µM and 6.74 µM and 4.06 µM and 4.11 µM and 9.99 µM and 4.61 µM and 3.66 µM | < 2.49 µM and 1.85 µM and 1.92 µM and 1.84 µM and 2.53 µM and 2.67 µM and 2.65 µM |
| CCOCC(=O)N1CCC([C@H](NC(=O)OCc2ccccc2)C(=O)Nc2cccc(CN)c2)CC1 | > 100 µM | > 99.5 µM |
| O=C1COc2c(cccc2N2CCN(Cc3c[nH]c4ccccc34)CC2)N1 | > 100 µM | > 99.5 µM |
| NCc1cccc(NC(=O)c2cc(NC(=O)OCc3ccccc3)cc(C(N)=O)c2)c1 | > 100 µM | > 99.5 µM |
| NCCCc1ccccc1NC(=O)c1cc(Cl)cc(NC(=O)OCc2ccccc2)c1 | > 100 µM | > 99.5 µM |
| COCCOc1ccc(Cl)cc1C(=O)Nc1cccc(CN)c1 | > 100 µM | > 99.5 µM |
| NCc1cccc(NC(=O)c2cc(Cl)ccc2OC2CCCC2)c1 | > 100 µM | > 99.5 µM |
| NCc1nc(CNC(=O)c2cc(Cl)cc(NC(=O)OCc3ccccc3)c2)cs1 | > 100 µM | > 99.5 µM |
| NCc1cccc(CS(=O)(=O)c2cc(Cl)cc(NC(=O)OCc3ccccc3)c2)c1 | > 100 µM | > 99.5 µM |
| CS(=O)(=O)Nc1ccc(Cl)cc1C(=O)Nc1cccc(CN)c1 | > 100 µM | > 99.5 µM |
| O=C(Nc1cc(Cl)cc(C(=O)Nc2cccc([C@H]3CCNC3)c2)c1)OCc1ccccc1 | 95.4 µM and > 100 µM | 33.3 µM and 58.3 µM and 41.4 µM |

| Compound | IC50 [1] | IC50 [2] |
| --- | --- | --- |
| NCc1cccc(NC(=O)[C@H](NC(=O)OCc2ccccc2)C2CCN(Cc3ccccn3)CC2)c1 | > 100 µM | > 99.5 µM |
| Cc1nccn1CCOc1cccc([C@H](NC(=O)OCc2ccccc2)C(=O)Nc2cccc(CN)c2)c1 | > 100 µM | > 99.5 µM |
| O=C(O)c1cc(Cl)c(F)cc1NS(=O)(=O)c1ccc(Oc2ccccc2Cl)cc1 | 11.2 µM and 8.35 µM and 16.5 µM and 10.2 µM and 9.1 µM and 8.36 µM and 12.3 µM and 5.27 µM and 5.73 µM | 7.82 µM |
| NCc1cccc(NC(=O)[C@H](NC(=O)OCc2ccccc2)c2cccc(OCc3ccncc3)c2)c1 | > 100 µM | > 99.5 µM |
| NCc1cccc(NC(=O)[C@H](NC(=O)OCc2ccccc2)C2CCN(Cc3ccccc3)CC2)c1 | > 100 µM | > 99.5 µM |
| CCN1CC[C@H](COc2cccc([C@H](NC(=O)OCc3ccccc3)C(=O)Nc3cccc(CN)c3)c2)C1 | > 100 µM | > 99.5 µM |
| Clc1ccc(-c2cc(CN3CCC(c4cscn4)CC3)[nH]n2)cc1 | > 100 µM | > 99.5 µM |
| NCc1cccc(NC(=O)c2cc(Cl)cc(F)c2F)c1 | > 100 µM | > 99.5 µM |
| Cn1cc(C(=O)N2CCC([C@H](NC(=O)OCc3ccccc3)C(=O)Nc3cccc(CN)c3)CC2)cn1 | > 100 µM | > 99.5 µM |
| CC(C)CNC(=O)c1cc(Cl)c(F)cc1NS(=O)(=O)c1ccc(Oc2ccccc2Cl)cc1 | 14.5 µM and 12.6 µM and 12.2 µM and 23.3 µM and 8.64 µM | 6.13 µM |
| NCc1cccc(NC(=O)[C@H](NC(=O)OCc2ccccc2)C2CCN(C(=O)c3ccco3)CC2)c1 | > 100 µM | > 99.5 µM |
| NCc1cccc(NC(=O)c2cc(NC(=O)OCc3ccccc3)cc(C(F)(F)F)c2F)c1 | > 100 µM | > 99.5 µM |
| NCc1cccc(NC(=O)c2cc(Cl)cc(C3CC3)c2)c1 | > 100 µM | > 99.5 µM |
| NCc1cccc(NC(=O)c2cc3c(c(NC(=O)OCc4ccccc4)c2)OCC3)c1 | > 100 µM | > 99.5 µM |
| NCc1cccc(NC(=O)[C@H](NC(=O)OCc2ccccc2)C2CCN(S(=O)(=O)c3cccnc3)CC2)c1 | > 100 µM | > 99.5 µM |
| O=C(Nc1cc(Cl)cc(C(=O)NCc2n[nH]c3c2CNCC3)c1)OCc1ccccc1 | > 100 µM | > 99.5 µM |
| CC(C)N1C(=O)C[C@H](C(=O)Nc2cccc(CN)c2)[C@H]1c1ccc(Cl)c(F)c1 | > 100 µM | > 99.5 µM |
| NCc1cccc(NC(=O)c2cc(Cl)cc(NC(=O)OCc3ccccc3)c2)c1 | > 100 µM | 78.2 µM and 61.5 µM |
| c1cnc2[nH]cc(C3CCN(Cc4c[nH]c5ccncc45)CC3)c2c1 | > 100 µM | > 99.5 µM |
| CN(C)Cc1cccc(NC(=O)[C@H](NC(=O)OCc2ccccc2)c2ccc(OCc3ccccc3)cc2)c1 | > 100 µM | > 99.5 µM |
| NCc1cccc(NC(=O)[C@H](NC(=O)OCc2ccccc2)c2cccc(OC[C@H]3COCCO3)c2)c1 | > 100 µM | > 99.5 µM |

| Compound | IC50 [1] | IC50 [2] |
| --- | --- | --- |
| NCc1cccc(NC(=O)[C@H](NC(=O)OCc2ccccc2)C2CCN(C(=O)C3CCCCC3)CC2)c1 | > 100 µM | > 99.5 µM |
| Cc1cc(-c2ccc([C@@H](NC(=O)OCc3ccccc3)C(=O)Nc3cccc(CN)c3)cc2)cs1 | 30.5 µM and 16.5 µM and 28.3 µM and 18.6 µM and 11.2 µM and 15.5 µM | 4.01 µM |
| NCc1cccc(NC(=O)c2cc(Cl)cc3c2OCC3)c1 | > 100 µM | > 99.5 µM |
| NCc1cccc(NC(=O)[C@H](NC(=O)OCc2ccccc2)C2CCN(C(=O)Cc3ccccc3)CC2)c1 | > 100 µM | > 99.5 µM |
| C#Cc1cc(NC(=O)OCc2ccccc2)cc(C(=O)Nc2cccc(CN)c2)c1 | > 100 µM | 81.7 µM |
| c1nc(C2CCN(Cc3cc(C4CCOCC4)[nH]n3)CC2)cs1 | > 100 µM | > 99.5 µM |
| COc1cc(NC(=O)OCc2ccccc2)cc(C(=O)Nc2cccc(CN)c2)c1OC | > 100 µM | > 99.5 µM |
| N#Cc1cccc2[nH]cc(CN3CCC(c4cscn4)CC3)c12 | > 100 µM | > 99.5 µM |
| O=C1Nc2ncccc2C[C@H]1NCc1n[nH]c2ccccc12 | > 100 µM | > 99.5 µM |
| NCc1cccc(NC(=O)[C@H](NC(=O)OCc2ccccc2)C2CCN(C(=O)c3ccccc3)CC2)c1 | > 100 µM | > 99.5 µM |
| c1cncc(-c2cc(CN3CCC(c4cscn4)CC3)n[nH]2)c1 | > 100 µM | > 99.5 µM |
| Cc1ncc(NC(=O)OCc2ccccc2)cc1C(=O)Nc1cccc(CN)c1 | > 100 µM | > 99.5 µM |
| NCc1cn(CCNC(=O)c2cc(Cl)cc(NC(=O)OCc3ccccc3)c2)nn1 | > 100 µM | > 99.5 µM |
| NCc1cccc(NC(=O)c2cc(Cl)ccc2NS(=O)(=O)c2ccccc2)c1 | > 100 µM | > 99.5 µM |
| Cc1ocnc1COc1cccc([C@H](NC(=O)OCc2ccccc2)C(=O)Nc2cccc(CN)c2)c1 | > 100 µM | > 99.5 µM |
| CCOCCS(=O)(=O)N1CCC([C@H](NC(=O)OCc2ccccc2)C(=O)Nc2cccc(CN)c2)CC1 | > 100 µM | > 99.5 µM |
| N#Cc1cccc(N2CCN(Cc3c[nH]c4ccccc34)CC2)c1 | > 100 µM | > 99.5 µM |
| COCCN1C(=O)C[C@H](C(=O)Nc2cccc(CN)c2)[C@H]1c1ccc(Cl)c(F)c1 | > 100 µM | > 99.5 µM |
| NCc1cccc(NC(=O)c2cc(Cl)cc3c2CCC3)c1 | > 100 µM | > 99.5 µM |
| COc1ccc(S(=O)(=O)n2nc(OC(=O)c3ccccc3)cc2N)cc1 | 2.53 µM and 2.17 µM and 3.95 µM and 3.07 µM (2×) and 2.23 µM and 3.29 µM and 3.81 µM and 2.28 µM | 3.47 µM |
